Measurements taken from patent US20140017790A1, “CONTROL AGENT FOR CONTROLLING UNDIFFERENTIATED STATE AND USE THEREOF” (RIKEN, priority 2011, published 2014).

Key:
Assay type in all cases: cell-based
human iPS cells [1] = experiment: phase-contrast morphology of human iPS cells with JAK or PI3K inhibitor; settings: 6 days
Experimental: As a JAK inhibitor, a JAK inhibitor I (Merck) was used. As PI3K inhibitor, the same LY294002 as used in Example 4 was used. Human iPS cells were cultured for 6 days under feeder conditions in the same manner as in the above item (1), except that not only the CCL2 but also the JAK inhibitor or the PI3K inhibitor further was added to the medium. In the medium, the concentration of the Jak inhibitor was set to 10 ng/ml, and the concentration of the PI3K inhibitor was set to 5 ng/ml.
Furthermore, as a control, the cells were cultured in the same manner as in the above using the following media, respectively: a medium containing bFGF instead of the CCL2 and containing DMSO (5 ng/ml) instead of the inhibitor; and a medium containing bFGF (5 ng/ml) instead of the CCL2 and containing the inhibitor.
The phase-contrast micrographs show the results obtained under the conditions of, from the above: the inhibitor not added (DMSO added); the JAK inhibitor added; and the PI3K inhibitor added.

human iPS cells [2] = experiment: EB formation and spontaneous differentiation, cell morphology; settings: third day from the plating; iPS cells precultured 6 days with the substance
Experimental: Human iPS cells were cultured for 6 days under feeder conditions in the same manner as in Example 7. Thereafter, embryonic bodies (EBs) were produced. EB formation is known as a spontaneous differentiation-inducing method for inducing the differentiation of iPS cells. Specifically, first, a ROCK inhibitor (Y-27632, WAKO) was added to the culture solution being used for the culture of the human iPS cells so that the concentration thereof was […], and the human iPS cells were cultured for 1 hour under the conditions of 37° C. and 5% CO2. Then, the feeder cells used for the culture were dissociated with a human ES/iPS cell dissociation solution (CTK solution), and the human iPS cells were collected. Then, 1×10^6 of the human iPS cells were seeded in an ultra-low adhesion culture vessel, and cultured for 6 days in an EB preparation medium (DMEM/F12, Knockout SR, L-glutamine, NEAA (non-essential amino acid (GIBCO)), 2-ME, Pen/Strep). The medium was replaced every two days.
Next, spontaneous differentiation was induced. Specifically, the produced EBs were seeded in gelatin coated dishes so that each gelatin coated dish contained one EB. Each EB was cultured for 14 days in a medium (DMEM) containing 20% FBS, and then observed with a microscope. The medium was replaced every two days. The photographs in FIG. 18 show the cell morphology on the third day from the plating.

human iPS cells [3] = experiment: differentiation of EBs to myocardial cells, morphology and Tropomyosin immunostaining; settings: 10th day from the plating; CCL2(+)/LIF(+) or CCL2(-)/bFGF(+) 5 ng/ml
Text: It has been reported that, in general, according to the spontaneous differentiation-inducing method used in the above item (1), differentiation into myocardial cells is more liable to occur. Thus, regarding the cells on the 10th day from the plating in the above item (1), differentiation into myocardial cells was examined.
The morphology of the cells was examined with a microscope. Furthermore, they were immunostained with a Tropomyosin, which is a marker for myocardial cells. Also, culture of the cells, observation of the morphology, and staining were carried out in the same manner as in the above using a medium to which bFGF (5 ng/ml) has been added instead of the CCL2 and LIF.
The photographs in FIG. 19 show the morphologies of the cells on the 10th day from the plating of EB. […] Furthermore, in FIGS. 19A and 19B, the photographs on the left show the cell morphologies, and the photographs on the right show the stained cells. In the black and white photographs of FIG. 19, the stained portions are seen as light gray.

human iPS cells [4] = experiment: culture of human iPS cells in feeder free media, EB plating, cell adhesion; settings: LIF not added, CCL2 500 ng/ml alone or bFGF 5 ng/ml alone
Text: As undifferentiated cells, the same human iPS cells as used in Example 7 were used. As CCL2, the mouse recombinant CCL2 used in the item (1) of Example 2 was used. As feeder free media, the following three kinds of media were provided by adding or not adding the CCL2, LIF and bFGF to the medium for human stem cells used in Example 8. Specifically, the media used were as follows: the medium with CCL2 not added (−)/LIF not added (−)/bFGF added (+); the medium with CCL2 added (+)/LIF not added (−)/bFGF not added (−); and the medium with CCL2 added (+)/LIF added (+)/bFGF not added (−). In each medium, the concentration of the LIF was set to 50 units/ml, the concentration of the CCL2 was set to 500 ng/ml, and the concentration of the bFGF was set to 5 ng/ml. Then, the human iPS cells were cultured for 6 days using each medium, and EBs were produced. Thereafter, the thus-produced EBs were seeded in gelatin coated dishes so that each gelatin coated dish contained one EB, and cultured for 5 days in a medium (DMEM) containing 20% FBS.
The photographs in FIG. 20 show the cell morphologies of the EBs on the 5th day from the plating.

human iPS cells [5] = experiment: quantitative RT-PCR of undifferentiated marker genes in human iPS cells under feeder conditions; settings: CCL2 500 ng/ml, 6 days, relative to bFGF 5 ng/ml
Experimental: (§1) A PrimeScript RT-PCR Kit (trade name, TAKARA BIO INC.), an ABI 7500 Fast real time PCR system (trade name, Applied BioSystems), and a SYBR (registered trademark) Premix Ex Taq (trade name, TAKARA BIO INC.) were used in accordance with their protocols. PCR was carried out by conducting 40 cycles of treatment with a treatment at 94° C. for 5 second and at 62.5° C. for 20 seconds as 1 cycle. The expression level of each gene was calculated by normalizing the relative amount of mRNA in the gene to Gapdh mRNA according to the 2^−ΔΔ^CT method (Thomse R, Solvsten C A, Linnet T E, et al., Analysis of qPCR data by converting exponentially related Ct values into linearly related XO values. J Bioinform Comput Biol 2010: 8: 885-900.).
The human iPS cells were used as undifferentiated cells, and human recombinant CCL2 (137-13011, WAKO, SEQ ID NO: 1) was used as the CCL2. The medium used was a medium for human stem cells (trade name “Primate ES medium”, ReproCELL Incorporated). To this medium, LIF was not added, and the CCL2 was added. The concentration of the CCL2 in the medium was set to 500 ng/ml. Under the above-described feeder conditions, the human iPS cells were cultured on the feeder cells SNL76/7 that produce LIF in the above-described medium. Then, 6 days after the start of the culture, the feeder cells were removed, and total RNAs were collected from the cultured human iPS cells. The undifferentiated marker genes were then subjected to the quantitative RT-PCR.
Also, as a negative control, the human iPS cells were cultured under the feeder conditions and the undifferentiated marker genes were subjected to quantitative RT-PCR in the same manner as in the above, except that bFGF (derived from human, WAKO) was added instead of the CCL2 so that the concentration thereof was 5 ng/ml. Thereafter, assuming that the expression level in the comparative example was 1, the relative value with respect to this value was calculated as the fold change in expression level.

mouse iPS cells = experiment: siRNA knockdown and quantitative RT-PCR in mouse iPS cells
Experimental: as §1, with “885-900.). […]” for “885-900.).”
The Stealth siRNA was added so that the final concentration thereof per well was […]. Then, 24 hours after the transfection, total RNAs were extracted, and the expression levels of the undifferentiated marker genes and the Ccl2 gene in the mouse iPS cells were determined by the quantitative RT-PCR.
Also, as a negative control, the mouse iPS cells were subjected to transfection in the same manner as in the above, except that Stealth siRNA (trade name: Stealth RNAi (registered trademark) Negative Control Medium GC, Duplex-catalog number 12935-300, Invitrogen) was used, and the expressions of the undifferentiated marker genes were measured (n=3). […]

Compound: CC(C)(C)c1nc2c3cc[nH]c(=O)c3c3cc(F)ccc3c2[nH]1 [Jak inhibitor, reference compound]
- undifferentiation potency, cell morphology (human iPS cells [1]; Jak inhibitor 10 ng/ml, both bFGF(+)/CCL2(-) and bFGF(-)/CCL2(+)): all the cells had been differentiated and many dead cells were observed

Compound: bFGF: bFGF (derived from human, WAKO), added instead of the CCL2 as negative control
- morphology of EB after spontaneous differentiation-inducing culture (human iPS cells [2]): epithelial cell-like morphology
- cell morphology of EBs, differentiation into myocardial cells (human iPS cells [3]): most of them were epithelial cell-like cells
- staining with Tropomyosin (marker for myocardial cells) (human iPS cells [3]): not stained
- cell adhesion (human iPS cells [4]): not observed
- undifferentiation potency, cell morphology (human iPS cells [1]; inhibitor not added (DMSO added), bFGF(+)/CCL2(-) or bFGF(-)/CCL2(+)): most of the cells maintained the undifferentiation potency, but some of the cells were differentiated

Compound: human recombinant CCL2: human recombinant CCL2 (137-13011, WAKO, SEQ ID NO: 1)
- expression of the KLF4 gene, fold change (human iPS cells [5]): about two-fold
- expression of the Nanog gene, fold change (human iPS cells [5]): about two-fold
- expression of the REX1 gene, fold change (human iPS cells [5]): about two-fold
- expression of the STELLA gene, fold change (human iPS cells [5]): about two-fold

Compound: siRNA against the Ccl2 gene: Stealth siRNA (Invitrogen), sequence SEQ ID NO: 7 CAUUCACCAGCAAGAUGAUCCCAAU (commercial Stealth siRNA, chemistry not given here)
- expressions of the undifferentiated marker genes (Klf4, Tbx3) after knockdown of the Ccl2 gene (mouse iPS cells; 24 hours after transfection, relative to negative control siRNA): decreased markedly

Compound: siRNA against the Klf4 gene: Stealth siRNA (Invitrogen), sequence SEQ ID NO: 8 CAAGUUUGUGCUGAAGGCGUCUCUG (commercial Stealth siRNA, chemistry not given here)
- expression of the Tbx3 gene after knockdown of the Klf4 gene (mouse iPS cells; 24 hours, relative to negative control): decreased markedly
